Measurements as given in patent publication US8921368B2, “Pyrrolopyridazine JAK3 inhibitors and their use for the treatment of inflammatory and autoimmune diseases” (Bristol-Myers Squibb Company, priority 2011, dated 2014).
pIC50: −log10 of the molar value.

Key:
JAK3 = JAK3 (Homo sapiens (Human), UniProt P52333); experiment: JAK3 Kinase Assay (Caliper / Filter protocols); format: biochemical; settings: JAK3 kinase inhibition; ATP 8 μM; read-out: LLE_JAK3_FB (IC50)
Procedure: JAK3 Kinase Assay Protocol (Caliper)
The assay reactions were performed in U-bottom 384-well plates. […] The reaction was initiated by the combination of GST-JAK3 enzyme with substrates and test compounds. The reactions were incubated at room temperature for 3 hours and terminated by adding 60 μl of 35 mM EDTA to each sample. […] Compounds were dissolved at 10 mM in dimethylsulfoxide (DMSO) and evaluated at eleven concentrations. IC50 values were derived by non-linear regression analysis.
JAK3 Kinase Assay Protocol (Filter)
Kinase reactions consisted of 5 ng of JAK3 enzyme, 30 uM CSKtide substrate, 0.2 μCi ^33P γ-ATP, 8 μM ATP in 30 μl kinase buffer (50 mM Hepes, pH 8.0, 10 mM MgCl2, 1 mM EGTA, 2 mM DTT). Reactions were incubated for 30 minutes at room temperature and stopped by the addition of cold trichloroacetic acid (TCA) to a final concentration of 15%. TCA precipitates were collected onto 384 well phosphocellulose filters (Millipore) using a Platemate to transfer the reaction mixture, washed on an EMBLA plate washer and the filters were quantitated using a TopCount 384-well liquid scintillation counter. […] Compounds were dissolved at 10 mM in dimethylsulfoxide (DMSO) and evaluated at six concentrations, each in triplicate. The final concentration of DMSO in the assay equaled 2%. IC50 values were derived by non-linear regression analysis.

JAK1 = JAK1 (Homo sapiens (Human), UniProt P23458); experiment: JAK1 Kinase Assay Protocol; format: biochemical; settings: GST-JAK1; ATP 100 μM; Caliper LabChip; read-out: LLE_JAK1 (IC50)
Sequence of JAK1 (P23458 whole entry): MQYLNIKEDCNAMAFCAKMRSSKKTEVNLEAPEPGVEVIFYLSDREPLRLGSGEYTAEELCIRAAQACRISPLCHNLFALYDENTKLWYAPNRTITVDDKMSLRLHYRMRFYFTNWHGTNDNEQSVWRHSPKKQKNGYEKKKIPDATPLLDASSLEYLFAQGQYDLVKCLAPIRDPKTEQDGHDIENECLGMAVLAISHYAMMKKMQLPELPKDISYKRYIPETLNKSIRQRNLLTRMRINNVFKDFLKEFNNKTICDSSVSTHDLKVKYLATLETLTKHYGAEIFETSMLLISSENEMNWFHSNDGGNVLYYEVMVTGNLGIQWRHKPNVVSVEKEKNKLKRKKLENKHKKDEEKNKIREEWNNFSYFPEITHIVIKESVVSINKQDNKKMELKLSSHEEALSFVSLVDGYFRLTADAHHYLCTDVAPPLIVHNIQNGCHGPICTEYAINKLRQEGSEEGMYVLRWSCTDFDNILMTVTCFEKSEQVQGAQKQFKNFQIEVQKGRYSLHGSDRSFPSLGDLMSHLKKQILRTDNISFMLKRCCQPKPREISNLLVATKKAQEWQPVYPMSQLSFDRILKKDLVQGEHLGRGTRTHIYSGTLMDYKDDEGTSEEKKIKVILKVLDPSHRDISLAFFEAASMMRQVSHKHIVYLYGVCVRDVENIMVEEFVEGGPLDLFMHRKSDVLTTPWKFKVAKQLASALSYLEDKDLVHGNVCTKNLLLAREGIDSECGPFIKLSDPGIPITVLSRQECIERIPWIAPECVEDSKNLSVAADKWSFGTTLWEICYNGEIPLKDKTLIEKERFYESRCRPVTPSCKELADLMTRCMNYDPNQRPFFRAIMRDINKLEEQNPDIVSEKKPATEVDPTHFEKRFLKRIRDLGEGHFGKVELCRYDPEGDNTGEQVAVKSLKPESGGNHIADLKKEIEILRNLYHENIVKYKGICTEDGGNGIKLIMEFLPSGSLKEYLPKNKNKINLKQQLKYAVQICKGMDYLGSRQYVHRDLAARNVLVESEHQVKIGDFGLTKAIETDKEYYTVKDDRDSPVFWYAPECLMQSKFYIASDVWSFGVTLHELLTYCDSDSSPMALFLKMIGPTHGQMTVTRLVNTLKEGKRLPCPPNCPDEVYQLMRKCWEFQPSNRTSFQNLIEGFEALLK
Procedure: JAK1 Kinase Assay Protocol
The assay reactions were performed in U-bottom 384-well plates. The final assay volume was 30 μl prepared from 15 μl additions of enzyme and substrates (fluoresceinated peptide and ATP) and test compounds in assay buffer (20 mM HEPES pH 7.4, 10 mM MgCl2, 25 mM beta-glycerol phosphate, 0.015% Brij35 and 4 mM DTT). The reaction was initiated by the combination of GST-JAK1 enzyme with substrates and test compounds. The reactions were incubated at room temperature for 3 hours and terminated by adding 60 μl of 35 mM EDTA to each sample. […] The final concentration of reagents in the assays was: ATP, 100 μM; fluoresceinated peptide, 1.5 μM; GST-JAK1, 12.5 nM; and DMSO, 1.6%. […] Compounds were dissolved at 10 mM in dimethylsulfoxide (DMSO) and evaluated at eleven concentrations. IC50 values were derived by non-linear regression analysis.

Sequence of JAK3 (P52333 whole entry): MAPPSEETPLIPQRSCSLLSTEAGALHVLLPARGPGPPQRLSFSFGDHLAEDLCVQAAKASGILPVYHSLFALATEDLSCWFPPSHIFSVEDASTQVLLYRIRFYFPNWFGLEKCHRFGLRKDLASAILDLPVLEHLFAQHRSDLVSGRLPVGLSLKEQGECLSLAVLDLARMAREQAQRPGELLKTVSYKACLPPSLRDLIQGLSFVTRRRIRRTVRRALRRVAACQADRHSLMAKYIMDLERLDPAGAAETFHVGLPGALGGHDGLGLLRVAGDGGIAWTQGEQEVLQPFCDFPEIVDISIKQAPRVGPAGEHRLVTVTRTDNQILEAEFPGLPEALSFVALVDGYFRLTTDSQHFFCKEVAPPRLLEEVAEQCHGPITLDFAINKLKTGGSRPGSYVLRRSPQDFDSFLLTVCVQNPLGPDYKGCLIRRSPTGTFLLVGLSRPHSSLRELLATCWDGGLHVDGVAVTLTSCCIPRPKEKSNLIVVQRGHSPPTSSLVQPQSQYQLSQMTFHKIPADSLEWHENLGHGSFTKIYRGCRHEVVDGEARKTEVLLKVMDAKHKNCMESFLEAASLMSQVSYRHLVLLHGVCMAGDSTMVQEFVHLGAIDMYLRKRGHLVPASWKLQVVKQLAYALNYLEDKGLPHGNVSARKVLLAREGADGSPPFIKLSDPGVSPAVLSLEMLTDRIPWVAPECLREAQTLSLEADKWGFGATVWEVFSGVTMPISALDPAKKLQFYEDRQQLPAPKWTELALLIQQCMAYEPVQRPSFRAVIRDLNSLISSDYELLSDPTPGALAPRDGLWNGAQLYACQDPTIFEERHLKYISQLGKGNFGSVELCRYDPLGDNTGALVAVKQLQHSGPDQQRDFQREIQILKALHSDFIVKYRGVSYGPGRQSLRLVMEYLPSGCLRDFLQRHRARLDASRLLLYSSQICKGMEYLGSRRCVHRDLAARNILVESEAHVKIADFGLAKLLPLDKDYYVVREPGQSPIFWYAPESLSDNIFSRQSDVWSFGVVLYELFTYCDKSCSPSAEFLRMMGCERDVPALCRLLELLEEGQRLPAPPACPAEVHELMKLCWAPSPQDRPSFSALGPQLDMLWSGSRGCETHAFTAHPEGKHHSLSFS

Q: With `C[C@]1(O)CCCC[C@@H]1Nc1c(C(N)=O)cnn2cc(-c3ccccc3)cc12` (racemic) [Example 314, (+/−)-4-(((1S,2S)-2-hydroxy-2-methylcyclohexyl)amino)-6-phenylpyrrolo[1,2-b]-pyridazine-3-carboxamide] as the molecule, how does the pIC50 (JAK3) read?
A: The pIC50 was 8.29.

Q: And the pIC50 (JAK1)?
A: Its pIC50 is 7.76.

Q: `C[C@]1(F)CCC[C@H]1Nc1c(C(N)=O)cnn2cc(N3CCOCC3=O)cc12` (racemic) [Example 318] was tested. Which pIC50 (JAK3) did it give?
A: Its pIC50 is 8.15.

Q: And the pIC50 (JAK1)?
A: Its pIC50 is 7.87.

Q: How did the pIC50 (JAK3) turn out when `CC1(C)[C@@H](Nc2c(C(N)=O)cnn3cc(-c4ccc(C#N)cc4)cc23)CC[C@@]1(C)N` [Example 112] was run?
A: Its pIC50 is 8.03.

Q: What about the pIC50 (JAK1) of the same molecule?
A: Its pIC50 is 7.90.

Q: What does the source list for `CC1(C#N)CCCC1Nc1c(C(N)=O)cnn2cc(-c3ccccc3)cc12` (stereo not shown) [Example 123]?
A: pIC50 (JAK3): 9.70; pIC50 (JAK1): 9.00

Q: What does the source list for `CC1(C)[C@H](Nc2c(C(N)=O)cnn3cc(-c4ccccc4)cc23)CC[C@]1(C)NS(C)(=O)=O` [Example 129]?
A: pIC50 (JAK3): 9.00; pIC50 (JAK1): 8.59

Q: Which results are given for `C[C@]1(O)CC[C@@H](Nc2c(C(N)=O)cnn3cc(-c4ccccc4C(N)=O)cc23)CC1` [Example 166, 6-(2-carbamoylphenyl)-4-((cis-4-hydroxy-4-methylcyclohexyl)amino)pyrrolo[1,2-b]pyridazine-3-carboxamide]?
A: pIC50 (JAK3): 7.47; pIC50 (JAK1): 7.14

Q: `C[C@]1(O)CC[C@@H](Nc2c(C(N)=O)cnn3cc(-c4ccc(C#N)cc4)cc23)CC1` [Example 167, 6-(4-cyanophenyl)-4-((cis-4-hydroxy-4-methylcyclohexyl)amino)pyrrolo[1,2-b]pyridazine-3-carboxamide] was tested. Which pIC50 (JAK3) did it give?
A: Its pIC50 is 8.80.

Q: What about the pIC50 (JAK1) of the same molecule?
A: The pIC50 was 8.21.

Q: `C[C@]1(O)CC[C@@H](Nc2c(C(N)=O)cnn3cc(-c4cncnc4)cc23)CC1` [Example 168, 4-((cis-4-hydroxy-4-methylcyclohexyl)amino)-6-(5-pyrimidinyl)pyrrolo [1,2-b]pyridazine-3-carboxamide] was tested. Which pIC50 (JAK3) did it give?
A: The pIC50 was 7.77.

Q: And the pIC50 (JAK1)?
A: The pIC50 was 6.98.

Q: With `CC1(C)[C@H](Nc2c(C(N)=O)cnn3cc(-c4cccnc4)cc23)CC[C@]1(C)N` [Example 192, 4-(((1R,3S)-3-amino-2,2,3-trimethylcyclopentyl)amino)-6-(3-pyridinyl) pyrrolo[1,2-b]pyridazine-3-carboxamide] as the molecule, how does the pIC50 (JAK3) read?
A: Its pIC50 is 9.30.

Q: And the pIC50 (JAK1)?
A: Its pIC50 is 9.15.

Q: Which results are given for `Cc1ccncc1-c1cc2c(N[C@@H]3CC[C@](C)(N)C3(C)C)c(C(N)=O)cnn2c1` [Example 195, 4-(((1R,3S)-3-amino-2,2,3-trimethylcyclopentyl)amino)-6-(4-methyl-3-pyridinyl)pyrrolo[1,2-b] pyridazine-3-carboxamide]?
A: pIC50 (JAK3): 8.21; pIC50 (JAK1): 8.89

Q: `CC1(C)[C@H](Nc2c(C(N)=O)cnn3cc(-c4ccc(N5CCCC5)nc4)cc23)CC[C@]1(C)N` [Example 213, 4-(((1R,3S)-3-amino-2,2,3-trimethylcyclopentyl)amino)-6-(6-(1-pyrrolidinyl)-3-pyridinyl)pyrrolo[1,2-b]pyridazine-3-carboxamide] was tested. Which pIC50 (JAK3) did it give?
A: The pIC50 was 8.02.

Q: What about the pIC50 (JAK1) of the same molecule?
A: Its pIC50 is 7.76.

Q: How did the pIC50 (JAK3) turn out when `CC1(C)[C@H](Nc2c(C(N)=O)cnn3cc(-c4ccc(C(=O)NC5CC5)cc4)cc23)CC[C@]1(C)N` [Example 221, 4-(((1R,3S)-3-amino-2,2,3-trimethylcyclopentyl)amino)-6-(4-(cyclopropylcarbamoyl)phenyl)pyrrolo[1,2-b] pyridazine-3-carboxamide] was run?
A: The pIC50 was 8.80.

Q: And the pIC50 (JAK1)?
A: Its pIC50 is 9.15.

Q: `CC1(C)[C@H](Nc2c(C(N)=O)cnn3cc(-c4ccccc4C(N)=O)cc23)CC[C@]1(C)N` [Example 255, 4-(((1R,3S)-3-amino-2,2,3-trimethylcyclopentyl)amino)-6-(2-carbamoylphenyl)pyrrolo [1,2-b]pyridazine-3-carboxamide] was tested. Which pIC50 (JAK3) did it give?
A: Its pIC50 is 8.22.

Q: What about the pIC50 (JAK1) of the same molecule?
A: Its pIC50 is 8.57.

Q: How did the pIC50 (JAK3) turn out when `CC(=O)Nc1ccccc1-c1cc2c(N[C@@H]3CC[C@](C)(N)C3(C)C)c(C(N)=O)cnn2c1` [Example 257, 6-(2-acetamidophenyl)-4-(((1R,3S)-3-amino-2,2,3-trimethylcyclopentyl)amino)pyrrolo[1,2-b]pyridazine-3-carboxamide] was run?
A: The pIC50 was 7.43.

Q: What about the pIC50 (JAK1) of the same molecule?
A: The pIC50 was 7.52.

Q: `CN(C)C(=O)c1ccc(-c2cc3c(N[C@@H]4CC[C@](C)(N)C4(C)C)c(C(N)=O)cnn3c2)cc1` [Example 266, 4-(((1R,3S)-3-amino-2,2,3-trimethylcyclopentyl)amino)-6-(4-(dimethylcarbamoyl)phenyl)pyrrolo[1,2-b]pyridazine-3-carboxamide] was tested. Which pIC50 (JAK3) did it give?
A: Its pIC50 is 9.10.

Q: And the pIC50 (JAK1)?
A: The pIC50 was 9.22.

Q: `CC1(C)[C@H](Nc2c(C(N)=O)cnn3cc(-c4ccc(CO)cc4)cc23)CC[C@]1(C)N` [Example 271, 4-(((1R,3S)-3-amino-2,2,3-trimethylcyclopentyl)amino)-6-(4-(hydroxymethyl)phenyl) pyrrolo[1,2-b]pyridazine-3-carboxamide] was tested. Which pIC50 (JAK3) did it give?
A: Its pIC50 is 9.52.

Q: And the pIC50 (JAK1)?
A: The pIC50 was 9.15.

Q: `CC1(C)[C@H](Nc2c(C(N)=O)cnn3cc(-c4cccc5ncccc45)cc23)CC[C@]1(C)N` [Example 272, 4-(((1R,3S)-3-amino-2,2,3-trimethylcyclopentyl)amino)-6-(5-quinolinyl)pyrrolo[1,2-b]pyridazine-3-carboxamide] was tested. Which pIC50 (JAK3) did it give?
A: Its pIC50 is 7.86.

Q: What about the pIC50 (JAK1) of the same molecule?
A: Its pIC50 is 8.27.

Q: `CC1(C)[C@H](Nc2c(C(N)=O)cnn3cc(-c4cncc(C(=O)O)c4)cc23)CC[C@]1(C)N` [Example 276, 5-(4-(((1R,3S)-3-amino-2,2,3-trimethylcyclopentyl)amino)-3-carbamoylpyrrolo[1,2-b]pyridazin-6-yl)nicotinic acid] was tested. Which pIC50 (JAK3) did it give?
A: Its pIC50 is 7.82.

Q: And the pIC50 (JAK1)?
A: Its pIC50 is 7.45.

Q: `COc1ncc(-c2cc3c(N[C@@H]4CC[C@](C)(N)C4(C)C)c(C(N)=O)cnn3c2)cn1` [Example 278, 4-(((1R,3S)-3-amino-2,2,3-trimethylcyclopentyl)amino)-6-(2-methoxy-5-pyrimidinyl)pyrrolo[1,2-b]pyridazine-3-carboxamide] was tested. Which pIC50 (JAK3) did it give?
A: Its pIC50 is 8.08.

Q: What about the pIC50 (JAK1) of the same molecule?
A: The pIC50 was 7.60.

Q: With `COc1cncc(-c2cc3c(N[C@@H]4CC[C@](C)(N)C4(C)C)c(C(N)=O)cnn3c2)c1` [Example 286, 4-(((1R,3S)-3-amino-2,2,3-trimethylcyclopentyl)amino)-6-(5-methoxy-3-pyridinyl)pyrrolo[1,2-b]pyridazine-3-carboxamide] as the molecule, how does the pIC50 (JAK3) read?
A: Its pIC50 is 8.26.

Q: And the pIC50 (JAK1)?
A: Its pIC50 is 8.39.

Q: Which results are given for `CC1(C)[C@H](Nc2c(C(N)=O)cnn3cc(-c4ccccc4)cc23)CC[C@@]1(C)O` [Example 293, 4-(((1R,3R)-3-hydroxy-2,2,3-trimethylcyclopentyl)amino)-6-phenylpyrrolo[1,2-b]pyridazine-3-carboxamide]?
A: pIC50 (JAK3): 9.70; pIC50 (JAK1): 10.00

Q: How did the pIC50 (JAK3) turn out when `NC(=O)c1cnn2cc(-c3ccc(F)cc3)cc2c1NC12CC3CC(O)(CC(O)(C3)C1)C2` [Example 298, 4-((3,5-dihydroxyadamantan-1-yl)amino)-6-(4-fluorophenyl)pyrrolo [1,2-b]pyridazine-3-carboxamide] was run?
A: The pIC50 was 8.33.

Q: And the pIC50 (JAK1)?
A: Its pIC50 is 8.68.

Q: With `NC(=O)c1cnn2cc(-c3ccc4scnc4c3)cc2c1NC12CC3CC(O)(CC(O)(C3)C1)C2` [Example 299, 6-(1,3-benzothiazol-5-yl)-4-((3,5-dihydroxyadamantan-1-yl)amino)pyrrolo [1,2-b]pyridazine-3-carboxamide] as the molecule, how does the pIC50 (JAK3) read?
A: Its pIC50 is 8.14.

Q: What about the pIC50 (JAK1) of the same molecule?
A: The pIC50 was 8.37.

Q: What does the source list for `CC1(C)CCC[C@H]1Nc1c(C(N)=O)cnn2cc(-c3ccccc3)cc12` [Example 304, 4-(((1R)-2,2-dimethylcyclopentyl)amino)-6-phenylpyrrolo[1,2-b] pyridazine-3-carboxamide]?
A: pIC50 (JAK3): 9.30; pIC50 (JAK1): 8.54

Q: `CC1(C)[C@H](Nc2c(C(N)=O)cnn3cc(N4CCOCC4=O)cc23)CC[C@]1(C)N` [Example 312, 4-(((1R,3S)-3-amino-2,2,3-trimethylcyclopentyl)amino)-6-(3-oxo-4-morpholinyl)pyrrolo[1,2-b]pyridazine-3-carboxamide] was tested. Which pIC50 (JAK3) did it give?
A: Its pIC50 is 7.35.

Q: And the pIC50 (JAK1)?
A: Its pIC50 is 7.16.

Q: `C[C@]1(O)CC[C@@H](Nc2c(C(N)=O)cnn3cc(-c4cncnc4N)cc23)CC1` [Example 316, 6-(4-amino-5-pyrimidinyl)-4-((cis-4-hydroxy-4-methylcyclohexyl)amino)pyrrolo[1,2-b]pyridazine-3-carboxamide] was tested. Which pIC50 (JAK3) did it give?
A: Its pIC50 is 7.96.

Q: And the pIC50 (JAK1)?
A: The pIC50 was 7.43.

Q: How did the pIC50 (JAK3) turn out when `C[C@]1(F)CCC[C@H]1Nc1c(C(N)=O)cnn2cc(N3CCOC3=O)cc12` [Example 317] was run?
A: The pIC50 was 8.17.

Q: And the pIC50 (JAK1)?
A: Its pIC50 is 7.87.

Q: `CC1(C)[C@H](Nc2c(C(N)=O)cnn3cc(N4CCCC4=O)cc23)CC[C@]1(C)N` [Example 328] was tested. Which pIC50 (JAK3) did it give?
A: Its pIC50 is 8.77.

Q: And the pIC50 (JAK1)?
A: The pIC50 was 7.69.

Q: Which results are given for `CC1(C)[C@H](Nc2c(C(N)=O)cnn3cc(N4CCC4=O)cc23)CC[C@]1(C)N` [Example 332]?
A: pIC50 (JAK3): 8.06; pIC50 (JAK1): 7.12
